{
  "source": "PubChem BioAssay (NCI)",
  "test_in_all_cases": "NCI-60 cell line screen, 48 h",
  "key": {"HOP-92 NSCLC": {"test_system": "HOP-92 NSCLC"}, "IGROV1 ovarian": {"test_system": "IGROV1 ovarian"}, "MALME-3M melanoma": {"test_system": "MALME-3M melanoma"}, "SK-MEL-28 melanoma": {"test_system": "SK-MEL-28 melanoma"}, "DMS 273 small cell lung": {"test_system": "DMS 273 small cell lung"}, "SW-620 colon": {"test_system": "SW-620 colon"}, "HCT-116 colon": {"test_system": "HCT-116 colon"}, "OVCAR-4 ovarian": {"test_system": "OVCAR-4 ovarian"}, "SK-OV-3 ovarian": {"test_system": "SK-OV-3 ovarian"}, "SNB-78 CNS": {"test_system": "SNB-78 CNS"}, "EKVX NSCLC": {"test_system": "EKVX NSCLC"}, "HT29 colon": {"test_system": "HT29 colon"}, "HL-60(TB) leukemia": {"test_system": "HL-60(TB) leukemia"}, "SNB-19 CNS": {"test_system": "SNB-19 CNS"}, "M19-MEL melanoma": {"test_system": "M19-MEL melanoma"}, "M14 melanoma": {"test_system": "M14 melanoma"}, "TK-10 renal": {"test_system": "TK-10 renal"}, "A549 NSCLC": {"test_system": "A549 NSCLC"}, "DMS 114 small cell lung": {"test_system": "DMS 114 small cell lung"}, "KM20L2 colon": {"test_system": "KM20L2 colon"}, "SF-295 CNS": {"test_system": "SF-295 CNS"}, "NCI-H226 lung": {"test_system": "NCI-H226 lung"}, "UACC-257 melanoma": {"test_system": "UACC-257 melanoma"}, "DLD-1 colon": {"test_system": "DLD-1 colon"}, "SK-MEL-5 melanoma": {"test_system": "SK-MEL-5 melanoma"}, "CAKI-1 renal": {"test_system": "CAKI-1 renal"}, "NCI-H460 lung": {"test_system": "NCI-H460 lung"}, "HCC-2998 colon": {"test_system": "HCC-2998 colon"}, "SN12C renal": {"test_system": "SN12C renal"}, "OVCAR-3 ovarian": {"test_system": "OVCAR-3 ovarian"}, "K-562 leukemia": {"test_system": "K-562 leukemia"}, "CCRF-CEM leukemia": {"test_system": "CCRF-CEM leukemia"}, "HOP-62 NSCLC": {"test_system": "HOP-62 NSCLC"}, "OVCAR-5 ovarian": {"test_system": "OVCAR-5 ovarian"}, "ACHN renal": {"test_system": "ACHN renal"}, "UACC-62 melanoma": {"test_system": "UACC-62 melanoma"}, "LXFL 529 NSCLC": {"test_system": "LXFL 529 NSCLC"}, "SNB-75 CNS": {"test_system": "SNB-75 CNS"}, "SR leukemia": {"test_system": "SR leukemia"}, "NCI-H23 lung": {"test_system": "NCI-H23 lung"}, "U251 CNS": {"test_system": "U251 CNS"}, "MOLT-4 leukemia": {"test_system": "MOLT-4 leukemia"}, "NCI-H522 lung": {"test_system": "NCI-H522 lung"}, "SF-268 CNS": {"test_system": "SF-268 CNS"}, "HCT-15 colon": {"test_system": "HCT-15 colon"}, "KM12 colon": {"test_system": "KM12 colon"}, "UO-31 renal": {"test_system": "UO-31 renal"}, "SF-539 CNS": {"test_system": "SF-539 CNS"}, "COLO 205 colon": {"test_system": "COLO 205 colon"}},
  "note": "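Exposure lasted 48 hours, with cells grown in 96-well plates and compounds tested at five concentrations. TGI: total growth inhibition.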",
  "data": [
    {"molecule": "C=CCc1cc(OC)c2c(c1)C(OC(C)=O)CC(c1ccc(OC)c(OC)c1)O2", "note": "(centres undefined)", "values": [
      {"measurement": "TGI", "setting": "HOP-92 NSCLC", "value": 76.2, "unit": "µM"},
      {"measurement": "TGI", "setting": "IGROV1 ovarian", "value": "> 100", "unit": "µM"},
      {"measurement": "TGI", "setting": "MALME-3M melanoma", "value": "> 100", "unit": "µM"},
      {"measurement": "TGI", "setting": "SK-MEL-28 melanoma", "value": "> 100", "unit": "µM"},
      {"measurement": "TGI", "setting": "DMS 273 small cell lung", "value": "> 100", "unit": "µM"},
      {"measurement": "TGI", "setting": "SW-620 colon", "value": "> 100", "unit": "µM"},
      {"measurement": "TGI", "setting": "HCT-116 colon", "value": "> 100", "unit": "µM"},
      {"measurement": "TGI", "setting": "OVCAR-4 ovarian", "value": "> 100", "unit": "µM"},
      {"measurement": "TGI", "setting": "SK-OV-3 ovarian", "value": "> 100", "unit": "µM"},
      {"measurement": "TGI", "setting": "SNB-78 CNS", "value": "> 100", "unit": "µM"},
      {"measurement": "TGI", "setting": "EKVX NSCLC", "value": "> 100", "unit": "µM"},
      {"measurement": "TGI", "setting": "HT29 colon", "value": "> 100", "unit": "µM"},
      {"measurement": "TGI", "setting": "HL-60(TB) leukemia", "value": "> 100", "unit": "µM"},
      {"measurement": "TGI", "setting": "SNB-19 CNS", "value": "> 100", "unit": "µM"},
      {"measurement": "TGI", "setting": "M19-MEL melanoma", "value": "> 100", "unit": "µM"},
      {"measurement": "TGI", "setting": "M14 melanoma", "value": "> 100", "unit": "µM"},
      {"measurement": "TGI", "setting": "TK-10 renal", "value": "> 100", "unit": "µM"},
      {"measurement": "TGI", "setting": "A549 NSCLC", "value": "> 100", "unit": "µM"},
      {"measurement": "TGI", "setting": "DMS 114 small cell lung", "value": "> 100", "unit": "µM"},
      {"measurement": "TGI", "setting": "KM20L2 colon", "value": "> 100", "unit": "µM"},
      {"measurement": "TGI", "setting": "SF-295 CNS", "value": "> 100", "unit": "µM"},
      {"measurement": "TGI", "setting": "NCI-H226 lung", "value": "> 100", "unit": "µM"},
      {"measurement": "TGI", "setting": "UACC-257 melanoma", "value": "> 100", "unit": "µM"},
      {"measurement": "TGI", "setting": "DLD-1 colon", "value": "> 100", "unit": "µM"},
      {"measurement": "TGI", "setting": "SK-MEL-5 melanoma", "value": "> 100", "unit": "µM"},
      {"measurement": "TGI", "setting": "CAKI-1 renal", "value": "> 100", "unit": "µM"},
      {"measurement": "TGI", "setting": "NCI-H460 lung", "value": "> 100", "unit": "µM"},
      {"measurement": "TGI", "setting": "HCC-2998 colon", "value": "> 100", "unit": "µM"},
      {"measurement": "TGI", "setting": "SN12C renal", "value": "> 100", "unit": "µM"},
      {"measurement": "TGI", "setting": "OVCAR-3 ovarian", "value": "> 100", "unit": "µM"},
      {"measurement": "TGI", "setting": "K-562 leukemia", "value": "> 100", "unit": "µM"},
      {"measurement": "TGI", "setting": "CCRF-CEM leukemia", "value": "> 100", "unit": "µM"},
      {"measurement": "TGI", "setting": "HOP-62 NSCLC", "value": "> 100", "unit": "µM"},
      {"measurement": "TGI", "setting": "OVCAR-5 ovarian", "value": "> 100", "unit": "µM"},
      {"measurement": "TGI", "setting": "ACHN renal", "value": "> 100", "unit": "µM"},
      {"measurement": "TGI", "setting": "UACC-62 melanoma", "value": "> 100", "unit": "µM"},
      {"measurement": "TGI", "setting": "LXFL 529 NSCLC", "value": "> 100", "unit": "µM"},
      {"measurement": "TGI", "setting": "SNB-75 CNS", "value": 58.6, "unit": "µM"},
      {"measurement": "TGI", "setting": "SR leukemia", "value": "> 100", "unit": "µM"},
      {"measurement": "TGI", "setting": "NCI-H23 lung", "value": "> 100", "unit": "µM"},
      {"measurement": "TGI", "setting": "U251 CNS", "value": "> 100", "unit": "µM"},
      {"measurement": "TGI", "setting": "MOLT-4 leukemia", "value": "> 100", "unit": "µM"},
      {"measurement": "TGI", "setting": "NCI-H522 lung", "value": "> 100", "unit": "µM"},
      {"measurement": "TGI", "setting": "SF-268 CNS", "value": "> 100", "unit": "µM"},
      {"measurement": "TGI", "setting": "HCT-15 colon", "value": "> 100", "unit": "µM"},
      {"measurement": "TGI", "setting": "KM12 colon", "value": "> 100", "unit": "µM"},
      {"measurement": "TGI", "setting": "UO-31 renal", "value": "> 100", "unit": "µM"},
      {"measurement": "TGI", "setting": "SF-539 CNS", "value": "> 100", "unit": "µM"},
      {"measurement": "TGI", "setting": "COLO 205 colon", "value": "> 100", "unit": "µM"}
    ]}
  ]
}
